Assay results taken from patent US20090042988A1, “PHARMACEUTICAL COMPOSITIONS CONTAINING A MEGLITINIDE COMPOUND FOR PREVENTING HEPATIC FIBROSIS” (KURUME UNIVERSITY, priority 2006, published 2009).
Where “and” joins values, the source holds several entries; their conditions need not be identical. Identical values can stand only once. Entries after “also recorded” stand apart in the source; their conditions may differ.

Legend:
[1] = Diabetic indexes (HbA1c, fasting blood glucose, blood glucose 2 hours after glucose tolerance test) in NASH patients with diabetes given nateglinide; assay type: in vivo; conditions: per patient, Case 1-5
Description: In 0th week and 12th week or 16 week, as the diabetic indexes, the fasting blood glucose, the blood glucose 2 hours after the glucose tolerance test, and hemoglobin A1c, as the evaluation of the liver, the degree of fatty liver determined by liver/spleen ratio of CT and liver biopsy tissues for each case were histologically analyzed to score hepatocellular degeneration, pericellular fibrosis, perivenular fibrosis, portal fibrosis or the like (Brunt E M et al. Am J Gastroenterol. 1999 94: 2467-2474).

[2] = system: fatty liver; test: Degree of fatty liver by liver/spleen ratio of CT in NASH patients with diabetes given nateglinide; assay type: in vivo
Excerpt: 5 patients were selected as the subjects, who had clinical features of fatty liver found by the abdominal ultrasound or the abdominal CT, had negative test results in various virus markers and autoantibody, could deny a drinking history or a drug history; were diagnosed as NASH by a liver biopsy based on Brunt's scale (Am J Gastroenterol. 1999 94: 2467-2474), and had diabetes on which diet and exercise therapies could not sufficiently produce the therapeutic effect. […] Am J Gastroenterol. 1999 94: 2467-2474).

[3] = system: liver biopsy tissues; conditions: 16 weeks, 5 patients with diabetes diagnosed as NASH (Non-patent Literature 10); cited from earlier work
[4] = system: ATP-citrate lyase; conditions: nateglinide administered before glucose load; diabetic model animal; cited from earlier work
[5] = twelve-week administration; 53 fatty liver cases with diabetes or 5 cases where GPT>GOT; cited from earlier work
[6] = system: liver biopsy tissues; test: Histological scoring of liver biopsy tissues (Brunt's scale) in NASH patients with diabetes given nateglinide;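 also: patients dosed orally with 90 mg thrice daily ahead of meals over 16 weeks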
Description: Meanwhile, the degree of hepatic fibrosis herein mentioned is evaluated by the steps comprising of treating the tissue section of liver biopsy samples with the method of specifically staining the fibrillary element such as Masson's trichrome stain, Sweet's reticulin stain or Azan stain; and then determining the quantity thereof per distinctive fibrosis images or evaluating them as stages. As one example, since hepatocellular necrosis or degeneration in NASH often occurs in areas of zone 3, the portal fibrosis is evaluated corresponding to the degree thereof on a scale of 0 to 4 when pericellular fibrosis, perivenular fibrosis or pathology of the region corresponding to the areas of zone 3 is advanced. Further, the degree is comprehensively classified as: Stage 1: perivascular/perisinusoidal/pericellular fibrosis partially or widely exists centering on zone 3; Stage 2: portal fibrosis partially or widely exists in addition to Stage 1; Stage 3: bridging fibrosis partially or widely exists; and Stage 4: cirrhosis.
Hepatocellular degeneration is determined as ballooning of hepatocytes after treating the section of liver biopsy tissues with hematoxylin-eosin staining. Hepatocellular degeneration is evaluated based on the number of the cells observed in the visual field (Non-patent Literature 11).

[7] = after nateglinide 90 mg orally three times per day (12th or 16th week)
[8] = Δ: value before admin. − value after admin., 0th and 12th weeks
[9] = Δ: value before admin. − value after admin., per patient, Case 1-5
[10] = after nateglinide administration, Brunt score, per patient, Case 1-5
[11] = after nateglinide administration, score, per patient, Case 1-5

For `CC(C)[C@H]1CC[C@H](C(=O)N[C@H](Cc2ccccc2)C(=O)O)CC1` [nateglinide, (−)-N-(trans-4-isopropylcyclohexanecarbonyl)-D-phenylalanine], the “BG 2 hrs. (blood glucose 2 hours after the glucose tolerance test)” value [1, 7] was 199 mg/dL and 105 mg/dL and 238 mg/dL and 337 mg/dL and 118 mg/dL, the fasting blood glucose [1, 7] was 106 mg/dL and 119 mg/dL and 115 mg/dL and 163 mg/dL and 100 mg/dL and the HbA1c ([1]; after nateglinide 90 mg orally three times per day before each meal (12th or 16th week)) was 5.5% and 5.6% and 6.2% and 7.1% and 5%. The “Δ BG 2 hrs. (blood glucose 2 hours after the glucose tolerance test)” value [1, 8] was 17 mg/dL and 89 mg/dL and 30 mg/dL and 88 mg/dL and 48 mg/dL, the “Δ HbA1c” value [1, 8] was 0.1% (2×) and −0.1% and 0.5% and 0.8% and the “Δ fasting blood glucose” value [1, 8] was 20 mg/dL and -6 mg/dL and -5 mg/dL and 7 mg/dL and 39 mg/dL. The “CT score liver/spleen ratio” value ([2]; after nateglinide administration, per patient, Case 1-5) was 1 and 0.9 and 0.95 and 0.8 and 1.05, the “improvement effect on fatty liver” value ([2]; cases whose diabetic indexes were not improved) was “an improvement effect on fatty liver was low” and the “Δ CT score liver/spleen ratio” value [2, 9] was −0.09 and −0.335 and −0.06 and −0.2 and −0.25. For the same molecule, the “fatty liver, hepatic inflammation, hepatic degeneration, hepatic fibrosis by liver biopsies before and after administration” value [3] was “the fatty liver diminished, and hepatic inflammation, hepatic degeneration or hepatic fibrosis was improved”, the “glucose-induced expression of ATP-citrate lyase in the liver” value [4] was “inhibits glucose-induced expression of ATP-citrate lyase” and the “GOT and GPT (index of hepatic injury)” value [5] was “statistically significantly inhibits GOT and GPT”. The grade [6, 10] was 1 (2×) and 2 (2×) and 1.5, the stage [6, 10] was 2 (2×) and 1 (2×) and 1.5 and the hepatocellular degeneration [6, 11] was 1 (4×) and 2. For the same molecule, the pericellular fibrosis [6, 11] was 1 (4×) and 0, the perivenular fibrosis [6, 11] was 1 (4×) and 2 and the “portal area neutrophil infiltration” value [6, 11] was 0 (3×) and 1 (2×). The portal fibrosis [6, 11] was 2 (2×) and 1 and 1.5 and 0.5, the portal vein inflammation [6, 11] was 0 (4×) and 1 and the “improvement of fatty liver, hepatocellular degeneration, pericellular fibrosis, perivenular fibrosis or portal fibrosis” value ([6]; cases whose diabetic indexes were improved by nateglinide) was “improvements were also observed”. For the same molecule, the “improvement of hepatocellular degeneration, pericellular fibrosis, perivenular fibrosis or portal fibrosis” value ([6]; cases whose diabetic indexes were not improved (Cases 1 and 3)) was “hepatic inflammation, degeneration or fibrosis thereof was improved; also recorded: almost the same improvements were observed”, the Δ grade [6, 9] was 1 (3×) and 0.5 and 0 and the Δ hepatocellular degeneration [6, 9] was 1 (3×) and 0 and 2. The Δ pericellular fibrosis [6, 9] was 2 (2×) and 1 (3×), the Δ perivenular fibrosis [6, 9] was 1 and the “Δ portal area neutrophil infiltration” value [6, 9] was 0 (3×) and 1 (2×). The Δ portal fibrosis [6, 9] was 1 (2×) and 0.5 (2×) and 0, the “Δ portal vein inflammation” value [6, 9] was 1 (4×) and 2 and the Δ stage [6, 9] was 1 (2×) and 0 (2×) and 0.5.
